Source: paper PMC5967867, “An NMDAR positive and negative allosteric modulator series share a binding site and are interconverted by methyl groups” (eLife, 2018)
Read-outs that look alike come from different tables or passages of the source.

Experiments:
GluN1/GluN2A NMDARs = GluN1/GluN2A NMDARs (Rattus norvegicus, UniProt P35439+Q00959); assay: Two-electrode voltage-clamp recordings, Xenopus laevis oocytes expressing GluN1/GluN2A; assay type: cell-based; details: saturating glutamate/glycine 100/30 µM; for EC50: mean [95% CI], - = not fit, response at 30 µM differed by no more than 15% from control, read-out: EC50 (µM) [conf. int.]; for Emax: mean ± SEM, read-out: Maximal Degree of Modulation (% of control)
Chain of GluN1/GluN2A NMDARs (Q00959 23-1464, other chains not shown): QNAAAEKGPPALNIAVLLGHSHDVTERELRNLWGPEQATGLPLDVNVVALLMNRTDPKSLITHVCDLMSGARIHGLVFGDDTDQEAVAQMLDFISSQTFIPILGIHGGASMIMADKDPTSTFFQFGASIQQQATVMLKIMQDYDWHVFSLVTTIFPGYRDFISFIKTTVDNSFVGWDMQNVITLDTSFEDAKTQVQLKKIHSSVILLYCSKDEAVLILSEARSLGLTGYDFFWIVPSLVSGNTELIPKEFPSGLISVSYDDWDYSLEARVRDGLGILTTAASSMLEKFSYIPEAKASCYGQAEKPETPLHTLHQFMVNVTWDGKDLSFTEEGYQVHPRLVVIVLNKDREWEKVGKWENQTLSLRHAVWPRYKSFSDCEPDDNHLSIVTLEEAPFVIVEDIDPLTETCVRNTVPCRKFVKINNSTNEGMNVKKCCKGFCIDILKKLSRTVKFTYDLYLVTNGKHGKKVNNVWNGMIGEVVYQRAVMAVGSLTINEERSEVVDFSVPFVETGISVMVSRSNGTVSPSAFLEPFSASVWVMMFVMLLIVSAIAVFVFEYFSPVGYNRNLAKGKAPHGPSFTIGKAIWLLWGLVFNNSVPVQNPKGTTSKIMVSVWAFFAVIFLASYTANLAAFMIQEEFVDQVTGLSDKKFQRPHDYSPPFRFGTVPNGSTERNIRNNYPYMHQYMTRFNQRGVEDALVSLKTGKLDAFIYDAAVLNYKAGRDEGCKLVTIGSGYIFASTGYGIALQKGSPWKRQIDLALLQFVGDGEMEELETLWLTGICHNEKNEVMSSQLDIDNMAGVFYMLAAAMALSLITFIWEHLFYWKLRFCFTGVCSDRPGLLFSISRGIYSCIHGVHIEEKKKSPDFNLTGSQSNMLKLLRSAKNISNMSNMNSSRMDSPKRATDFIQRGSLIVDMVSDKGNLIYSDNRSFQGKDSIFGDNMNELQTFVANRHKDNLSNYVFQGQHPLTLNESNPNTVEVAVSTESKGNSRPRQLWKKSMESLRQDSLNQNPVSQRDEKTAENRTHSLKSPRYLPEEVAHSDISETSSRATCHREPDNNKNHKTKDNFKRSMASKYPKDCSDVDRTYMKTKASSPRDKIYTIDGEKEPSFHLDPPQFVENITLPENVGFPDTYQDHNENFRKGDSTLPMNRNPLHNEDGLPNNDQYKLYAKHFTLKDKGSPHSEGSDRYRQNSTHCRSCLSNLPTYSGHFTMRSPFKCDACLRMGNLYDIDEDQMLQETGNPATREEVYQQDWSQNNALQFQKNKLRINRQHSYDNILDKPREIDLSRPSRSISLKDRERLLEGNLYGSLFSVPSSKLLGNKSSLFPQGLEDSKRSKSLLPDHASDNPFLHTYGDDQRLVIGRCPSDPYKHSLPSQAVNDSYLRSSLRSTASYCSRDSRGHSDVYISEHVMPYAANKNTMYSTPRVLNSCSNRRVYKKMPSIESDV
Method: (§1) cDNAs for rat wild type NMDAR subunits GluN1-1a (GenBank U11418, U08261; hereafter GluN1 or GluN1a), GluN1-1b (U08263, hereafter GluN1b), GluN2A (D13211), GluN2B (U11419), GluN2C (M91563), and GluN2D (L31611, modified as described in [Monyer et al., 1994]) were provided by Drs. S. Heinemann (Salk Institute), S. Nakanishi (Kyoto University), and P. Seeburg (University of Heidelberg). Site-directed mutagenesis was conducted using the QuikChange kit (Agilent Technologies, Santa Clara, CA) following the recommended protocol. DNA sequencing was used to verify all mutations. The amino acid numbering system started with the initiating methionine as residue number one. For expression in Xenopus laevis oocytes, cDNA constructs were linearized by restriction enzymes, and subsequently used to synthesize in vitro cRNAs following the manufacturer’s protocol (mMessage mMachine, Ambion, ThermoFisher Scientific, Waltham, MA).
(§2) Xenopus laevis stage VI oocytes (Ecocyte Biosciences, Austin, TX) were injected as previously described ([Hansen et al., 2013]) 2–7 days prior to recording with cRNA encoding the NMDAR subunits and stored at 15°C in media containing (in mM) 88 NaCl, 2.4 NaHCO3, 1 KCl, 0.33 Ca(NO3)2, 0.41 CaCl2, 0.82 MgSO4, 5 Tris-HCl; pH was adjusted to 7.4 with NaOH and the solution supplemented with 1 U/mL penicillin, 0.1 mg/mL gentamicin sulfate, and 1 μg/mL streptomycin. Two-electrode voltage-clamp recordings were performed at room temperature (21–23°C) using different internal solutions for voltage and current electrodes (0.3 M and 3.0 M KCl, respectively). All extracellular solutions were made from a solution containing (in mM) 90 NaCl, 1 KCl, 10 HEPES, 0.5 BaCl2, 0.01 EDTA (pH 7.4 with NaOH). Experiments were performed using an eight port Modular Valve Positioner (Hamilton Company, Reno, NV) and controlled by custom software (Easy Oocyte, Emory University, Atlanta, GA)to exchange solutions. Oocyte currents were recorded at a holding potential of −40 mV using a two-electrode voltage-clamp amplifier (OC-725B or OC-725C, Warner Instruments, Hamden, CT). […] In MTSEA experiments, fresh MTSEA solutions (0.2 mM) were prepared and utilized in less than 30 min to limit compound degradation.
(§3) Measurements are given as mean ± SEM unless otherwise indicated. The number of replicate experiments used was chosen to ensure a power level of at least 0.80 when α = 0.05 and when detecting appropriate effect sizes. EC50 and IC50 values and confidence intervals reported were calculated by averaging the log(EC50) or log(IC50) value, determining confidence intervals for mean log(EC50) or log(IC50), and converting back to units of molarity. Statistical significance evaluations (α set to 0.05) were performed using a one-way ANOVA with Dunnett’s multiple comparison test, a paired t–test, or other appropriate tests as described.

GluN1/GluN2B NMDARs = GluN1/GluN2B NMDARs (Rattus norvegicus, UniProt P35439+Q00960); assay: Two-electrode voltage-clamp recordings, Xenopus laevis oocytes expressing GluN1/GluN2B; assay type: cell-based; details: saturating glutamate/glycine 100/30 µM; for EC50: mean [95% CI], - = not fit, response at 30 µM differed by no more than 15% from control, read-out: EC50 (µM) [conf. int.]; for Emax: mean ± SEM, read-out: Maximal Degree of Modulation (% of control)
Chain of GluN1/GluN2B NMDARs (Q00960 27-1482, other chains not shown): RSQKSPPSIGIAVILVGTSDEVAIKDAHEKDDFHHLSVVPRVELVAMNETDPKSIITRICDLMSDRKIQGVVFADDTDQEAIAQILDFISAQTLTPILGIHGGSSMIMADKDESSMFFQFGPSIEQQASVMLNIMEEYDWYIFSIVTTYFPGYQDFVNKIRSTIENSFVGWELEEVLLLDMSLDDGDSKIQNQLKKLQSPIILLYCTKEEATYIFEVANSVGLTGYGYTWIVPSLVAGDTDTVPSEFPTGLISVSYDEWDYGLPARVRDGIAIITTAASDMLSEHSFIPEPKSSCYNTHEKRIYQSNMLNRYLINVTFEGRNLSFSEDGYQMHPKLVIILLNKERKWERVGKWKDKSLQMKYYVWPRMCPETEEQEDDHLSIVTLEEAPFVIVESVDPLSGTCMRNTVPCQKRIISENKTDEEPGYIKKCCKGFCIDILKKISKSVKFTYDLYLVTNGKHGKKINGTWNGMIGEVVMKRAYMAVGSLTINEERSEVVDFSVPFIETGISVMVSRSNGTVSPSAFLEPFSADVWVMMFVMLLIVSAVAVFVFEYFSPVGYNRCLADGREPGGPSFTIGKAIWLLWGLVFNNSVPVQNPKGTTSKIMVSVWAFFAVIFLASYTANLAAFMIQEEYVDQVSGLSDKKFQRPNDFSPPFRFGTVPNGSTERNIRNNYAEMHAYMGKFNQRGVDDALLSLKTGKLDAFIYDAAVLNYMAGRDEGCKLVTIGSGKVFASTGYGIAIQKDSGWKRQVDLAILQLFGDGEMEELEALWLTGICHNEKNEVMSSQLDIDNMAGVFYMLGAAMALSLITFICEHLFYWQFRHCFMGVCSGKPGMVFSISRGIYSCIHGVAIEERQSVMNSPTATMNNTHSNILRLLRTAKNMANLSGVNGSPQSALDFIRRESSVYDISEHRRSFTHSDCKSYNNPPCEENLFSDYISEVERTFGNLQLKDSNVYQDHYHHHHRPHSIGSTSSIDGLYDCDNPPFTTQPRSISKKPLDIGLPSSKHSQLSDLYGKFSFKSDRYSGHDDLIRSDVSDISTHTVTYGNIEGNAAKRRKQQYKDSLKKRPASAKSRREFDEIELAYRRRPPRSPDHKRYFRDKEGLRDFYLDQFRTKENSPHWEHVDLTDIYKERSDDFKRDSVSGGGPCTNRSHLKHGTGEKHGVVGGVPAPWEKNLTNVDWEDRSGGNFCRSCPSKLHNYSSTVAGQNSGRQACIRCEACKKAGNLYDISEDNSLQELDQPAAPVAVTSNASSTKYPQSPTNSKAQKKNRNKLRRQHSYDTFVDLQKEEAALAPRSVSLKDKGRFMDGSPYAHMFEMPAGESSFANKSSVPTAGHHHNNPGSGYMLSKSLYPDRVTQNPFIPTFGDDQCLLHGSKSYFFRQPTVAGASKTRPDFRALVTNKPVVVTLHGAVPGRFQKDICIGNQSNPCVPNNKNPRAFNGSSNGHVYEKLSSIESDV
Method: as §1, §2, §3

GluN1/GluN2C NMDARs = GluN1/GluN2C NMDARs (Rattus norvegicus, UniProt P35439+Q00961); assay: Two-electrode voltage-clamp recordings, Xenopus laevis oocytes expressing GluN1/GluN2C; assay type: cell-based; details: saturating glutamate/glycine 100/30 µM; for EC50: mean [95% CI], read-out: EC50 (µM) [conf. int.]; for Emax: mean ± SEM, read-out: Maximal Degree of Modulation (% of control)
Method: as §1, §2, §3

GluN1/GluN2D NMDARs = GluN1/GluN2D NMDARs (Rattus norvegicus, UniProt P35439+Q62645); assay: Two-electrode voltage-clamp recordings, Xenopus laevis oocytes expressing GluN1/GluN2D; assay type: cell-based; details: for Emax: mean ± SEM, read-out: Maximal Degree of Modulation (% of control)
Chain of GluN1/GluN2D NMDARs (Q62645 28-1323, other chains not shown): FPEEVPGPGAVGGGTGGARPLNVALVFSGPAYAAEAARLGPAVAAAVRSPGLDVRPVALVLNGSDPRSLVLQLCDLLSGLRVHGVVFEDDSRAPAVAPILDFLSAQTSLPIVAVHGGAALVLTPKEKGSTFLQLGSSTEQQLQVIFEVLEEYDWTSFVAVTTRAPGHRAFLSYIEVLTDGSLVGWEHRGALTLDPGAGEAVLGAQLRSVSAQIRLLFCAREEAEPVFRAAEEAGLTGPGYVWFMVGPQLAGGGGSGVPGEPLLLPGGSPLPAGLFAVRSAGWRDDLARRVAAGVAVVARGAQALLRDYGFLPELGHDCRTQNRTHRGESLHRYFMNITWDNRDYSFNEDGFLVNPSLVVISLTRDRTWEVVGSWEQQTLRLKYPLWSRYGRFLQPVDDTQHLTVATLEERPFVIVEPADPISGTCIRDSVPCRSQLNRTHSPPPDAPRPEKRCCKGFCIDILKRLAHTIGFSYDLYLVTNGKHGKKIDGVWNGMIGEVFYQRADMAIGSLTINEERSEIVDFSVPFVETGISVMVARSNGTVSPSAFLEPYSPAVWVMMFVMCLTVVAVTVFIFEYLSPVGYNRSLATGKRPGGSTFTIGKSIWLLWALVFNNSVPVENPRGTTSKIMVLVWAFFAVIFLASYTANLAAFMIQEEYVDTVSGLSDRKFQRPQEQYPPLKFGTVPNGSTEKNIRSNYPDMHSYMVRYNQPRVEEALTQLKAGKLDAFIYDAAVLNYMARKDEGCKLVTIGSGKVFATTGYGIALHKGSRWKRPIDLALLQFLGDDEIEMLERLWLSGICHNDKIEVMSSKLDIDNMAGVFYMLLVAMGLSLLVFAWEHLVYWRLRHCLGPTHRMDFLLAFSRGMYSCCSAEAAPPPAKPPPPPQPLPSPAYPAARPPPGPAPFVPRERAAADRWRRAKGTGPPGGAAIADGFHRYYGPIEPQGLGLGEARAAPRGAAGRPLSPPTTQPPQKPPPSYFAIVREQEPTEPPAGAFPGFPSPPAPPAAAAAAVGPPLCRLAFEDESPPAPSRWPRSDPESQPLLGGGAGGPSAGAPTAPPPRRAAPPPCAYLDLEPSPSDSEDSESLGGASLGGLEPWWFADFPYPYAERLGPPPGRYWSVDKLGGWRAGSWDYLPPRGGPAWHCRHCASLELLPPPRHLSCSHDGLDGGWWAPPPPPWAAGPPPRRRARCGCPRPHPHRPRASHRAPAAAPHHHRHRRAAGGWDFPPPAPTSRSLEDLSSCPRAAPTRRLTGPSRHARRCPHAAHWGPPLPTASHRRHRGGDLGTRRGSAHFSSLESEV
Method: cDNAs for rat wild type NMDAR subunits GluN1-1a (GenBank U11418, U08261; hereafter GluN1 or GluN1a), GluN1-1b (U08263, hereafter GluN1b), GluN2A (D13211), GluN2B (U11419), Glu[…]), and Glu[…], modified as described in [Monyer et al., 1994]) were provided by Drs. S. Heinemann (Salk Institute), S. Nakanishi (Kyoto University), and P. Seeburg (University of Heidelberg). Site-directed mutagenesis was conducted using the QuikChange kit (Agilent Technologies, Santa Clara, CA) following the recommended protocol. DNA sequencing was used to verify all mutations. The amino acid numbering system started with the initiating methionine as residue number one. For expression in Xenopus laevis oocytes, cDNA constructs were linearized by restriction enzymes, and subsequently used to synthesize in vitro cRNAs following the manufacturer's protocol (mMessage mMachine, Ambion, ThermoFisher Scientific, Waltham, MA). […] All extracellular solutions were made from a solution containing (in mM) 90 NaCl, 1 KCl, 10 HEPES, 0.5 BaCl2, 0.01 EDTA (pH 7.4 with NaOH). Experiments were performed using an eight port Modular Valve Positioner (Hamilton Company, Reno, NV) and controlled by custom software (Easy Oocyte, Emory University, Atlanta, GA)to exchange solutions. Oocyte currents were recorded at a holding potential of -40 mV using a two-electrode voltage-clamp amplifier (OC-725B or OC-725C, Warner Instruments, Hamden, CT). […] Measurements are given as mean ± SEM unless otherwise indicated. […] EC50 and IC50 values and confidence intervals reported were calculated by averaging the log(EC50) or log(IC50) value, determining confidence intervals for mean log(EC50) or log(IC50), and converting back to units of molarity. Statistical significance evaluations (α set to 0.05) were performed using a one-way ANOVA with Dunnett's multiple comparison test, a paired t-test, or other appropriate tests as described.

NMDAR = tested on: NMDAR; set-up: method as in Kew et al., 1996; details: ref Kew et al., 1996; cited from earlier work
[1] = saturating glutamate/glycine 100/30 µM, mean [95% CI], read-out: EC50 (µM) [conf. int.]
[2] = saturating glutamate/glycine 100/30 µM

Work on `CC(C)OC(=O)c1c(NC(=O)CC2SC(=N)NC2=O)sc2c1CCCC2` (stereo not shown) [EU1794-5, isopropyl 2-(2-(2-imino-4-oxothiazolidin-5-yl)acetamido)-4,5,6,7-tetrahydrobenzo[b]thiophene-3-carboxylate] yielded an EC50 (GluN1/GluN2A NMDARs) of 18 µM, an Emax (GluN1/GluN2A NMDARs) of 36% and an EC50 (GluN1/GluN2B NMDARs) of 2.5 µM. For the same molecule, the Emax (GluN1/GluN2B NMDARs) was 71%, the EC50 (GluN1/GluN2C NMDARs) was 4 µM and the Emax (GluN1/GluN2C NMDARs) was 140%. It also gave an EC50 (GluN1/GluN2D NMDARs; [1]) of 9.3 µM and a melting point of 152 to 154 °C.
With `CC1CCc2c(sc(NC(=O)CC3SC(=N)NC3=O)c2C(=O)OC(C)C)C1` (stereo not shown) [EU1794-19, isopropyl 2-(2-(2-imino-4-oxothiazolidin-5-yl)acetamido)-6-methyl-4,5,6,7-tetrahydrobenzo[b]thiophene-3-carboxylate] the EC50 (GluN1/GluN2A NMDARs) was 1.1 µM, the Emax (GluN1/GluN2A NMDARs) was 19% and the EC50 (GluN1/GluN2B NMDARs) was 1.1 µM. For the same molecule, the Emax (GluN1/GluN2B NMDARs) was 43%, the EC50 (GluN1/GluN2C NMDARs) was 0.74 µM and the Emax (GluN1/GluN2C NMDARs) was 32%. The EC50 (GluN1/GluN2D NMDARs; [1]) was 0.43 µM, the Emax (GluN1/GluN2D NMDARs; [2]) was 46% and the melting point was 229 °C (dec.).
For `N=C1NC(=O)C(CC(=O)Nc2sc3c(c2C(=O)OCc2ccccc2)CCCC3)S1` (stereo not shown) [EU1794-25, benzyl 2-(2-(2-imino-4-oxothiazolidin-5-yl)acetamido)-4,5,6,7-tetrahydrobenzo[b]thiophene-3-carboxylate], the EC50 (GluN1/GluN2A NMDARs) was over 30 µM, the EC50 (GluN1/GluN2B NMDARs) was 1 µM and the Emax (GluN1/GluN2B NMDARs) was 220%. The EC50 (GluN1/GluN2C NMDARs) was 0.77 µM, the Emax (GluN1/GluN2C NMDARs) was 180% and the EC50 (GluN1/GluN2D NMDARs; [1]) was 1 µM. It also gave an Emax (GluN1/GluN2D NMDARs; [2]) of 250%.
`CCCCOC(=O)c1c(NC(=O)CC2SC(=N)NC2=O)sc2c1CCCC2` (stereo not shown) [EU1794-29, butyl 2-(2-(2-imino-4-oxothiazolidin-5-yl)acetamido)-4,5,6,7-tetrahydrobenzo[b]thiophene-3-carboxylate] showed an EC50 (GluN1/GluN2A NMDARs) of 3.7 µM, an Emax (GluN1/GluN2A NMDARs) of 59% and an EC50 (GluN1/GluN2B NMDARs) of 1.4 µM. The Emax (GluN1/GluN2B NMDARs) was 140%, the EC50 (GluN1/GluN2C NMDARs) was 3.8 µM and the Emax (GluN1/GluN2C NMDARs) was 130%. The EC50 (GluN1/GluN2D NMDARs; [1]) was 5.7 µM and the Emax (GluN1/GluN2D NMDARs; [2]) was 166%.
`N[C@@H](CCC(=O)O)C(=O)O` [Glutamate, reference compound] gave an EC50 (GluN1/GluN2D NMDARs; read-out: Control Glutamate EC50 (µM) [conf. int.], glutamate EC50 in 30 µM glycine, absence of EU1794-27) of 0.21 µM.
For `CC(C(O)c1ccc(O)cc1)N1CCC(Cc2ccccc2)CC1` (stereo not shown) [ifenprodil], the “residual current at saturating levels” value (NMDAR) is given as ~ 10%.
